Measured values from paper PMC6627510, “The Role of a Key Amino Acid Position in Species-Specific Proteinaceous dUTPase Inhibition” (Biomolecules, 2019).

Legend:
Assay type in all cases: binding
E. coli dUTPase (EcDUT) [1] = target: T1, E. coli dUTPase (EcDUT) (Escherichia coli, UniProt P06968, Q94R/F146W, form not given); assay: tryptophan fluorescence; conditions: 3 µM enzyme, 100 µM dUPNPP, 5 mM MgCl2, pH 7.5, 293 K; active site
T1 construct: gene dut; expressed in E. coli BL21(DE3) Rosetta; homotrimer; C-terminal residues R150, Q151

E. coli dUTPase (EcDUT) [2] = target: T2, E. coli dUTPase (EcDUT) (Escherichia coli, UniProt P06968, F146W, form not given); assay: tryptophan fluorescence; acrylamide quenching; conditions: 3 µM enzyme, 100 µM dUPNPP, 5 mM MgCl2, pH 7.5, 293 K; active site; quenching with 4 µM enzyme, 1.5 mM dUPNPP
T2 construct: gene dut; expressed in E. coli BL21(DE3) Rosetta; homotrimer; C-terminal residues R150, Q151

E. coli dUTPase (EcDUT) [3] = target: T3, E. coli dUTPase (EcDUT) (Escherichia coli, UniProt P06968, Q94H, form not given); assay: X-ray crystallography, […] Å; conditions: 5 mM dUPNPP, Mg2+, pH 7.5; active site; non-hydrolysable substrate analogue
T3 construct: gene dut; expressed in E. coli BL21(DE3) Rosetta; homotrimer; C-terminal residues R150, Q151

E. coli dUTPase (EcDUT) [4] = target: T4, E. coli dUTPase (EcDUT) (Escherichia coli, UniProt P06968, Q94H/F146W, form not given); assay: tryptophan fluorescence; acrylamide quenching; conditions: 3 µM enzyme, 100 µM dUPNPP, 5 mM MgCl2, pH 7.5, 293 K; active site; quenching with 4 µM enzyme, 1.5 mM dUPNPP
T4 construct: gene dut; expressed in E. coli BL21(DE3) Rosetta; homotrimer; C-terminal residues R150, Q151

SMILES: O=c1ccn([C@H]2C[C@H](O)[C@@H](COP(=O)(O)NP(=O)(O)OP(=O)(O)O)O2)c(=O)[nH]1 [dUPNPP]
- tryptophan fluorescence (E. coli dUTPase (EcDUT) [1]): allowed us to follow substrate analogue and Stl binding of the three arm-tryptophan mutant enzyme
- tryptophan fluorescence; acrylamide quenching (E. coli dUTPase (EcDUT) [2]): allowed us to follow substrate analogue and Stl binding of the three arm-tryptophan mutant enzyme
- X-ray crystallography, 1.8 Å (E. coli dUTPase (EcDUT) [3]): we crystallized the EcDUT^Q93H dUTPase mutant in the presence of the non-hydrolysable substrate analogue dUPNPP
- tryptophan fluorescence; acrylamide quenching (E. coli dUTPase (EcDUT) [4]): allowed us to follow substrate analogue and Stl binding of the three arm-tryptophan mutant enzyme
